The values that follow come from US11229628B2, “TRPA1 and TRPV4 inhibitors and methods of using the same for organ-specific inflammation and itch” (Duke University, priority 2015, dated 2022).

“Also recorded” adds a separate entry of the source. Where a SMILES comes first, the peptide text is derived from it. [ ]: non-standard residue; d: D form.

Assay [1] has as its system primary mouse epidermal keratinocytes (1° MK). Kind of assay: UVB-evoked Ca++ signaling in primary mouse keratinocytes (fluo-4 imaging). The format is cell-based. To be noted: for ET1-augmented UVB-evoked Ca++ signaling: UVB and ET1 co-exposure; for UVB-evoked Ca++ signaling: fluo-4 ΔF/F0, GSK205 20 μM. The procedure: Ca++ imaging of 1° MK was conducted following routine procedures. For UVB stimulation, a customized device was built. The system comprised a printed circuit board for electrical interconnects and mechanical support and an ultraviolet light-emitting diode (UV LED).
The operating wavelength was 295 nm (FIG. 2A), with a full-width half-max of 12 nm. The optical power was 500 mW. The focal point was aimed at the plane of the upper surface of the quartz coverslip, which was used to minimize UV absorption along the optical path towards the cells (FIG. 2A-C). The optical intensity at the focal point was estimated to be 150 mW/mm^2.
(§1) Ca++ imaging of mouse 1° MK in response to chemical activation of TRPV4 was conducted after loading with 2 μM fura2-AM, following a ratiometric Ca2+ imaging protocol with 340/380 nm […] for dual excitation. Ratios of emissions were acquired at 0.5 Hz. ΔR/R0 was determined as the fraction of the increase of a given ratio over baseline ratio, divided by baseline ratio. For stimulation of cells with UVB, where fura-2 was not suitable because of the proximity of stimulation with 340/380 nm and 295 nm, 2 μM fluo4-AM was used instead. Ca++ imaging was carried out at 488 nm excitation, acquisition of emissions at 0.5 Hz, expressed as ΔF/F0. In the custom-built UV optical system, UV LEDs were capped with a ball lens, a transparent optical window in the shape of a hemispherical lens (FIG. 2B). The LED output optical beam focused at 15-20 mm from the lens, with a spot diameter of approximately 1.5˜2.0 mm (FIG. 2C). […] The thermal equilibration stage was set for physiological temperature.
To further dissect the underlying mechanisms involved, we built a customized device for specific and narrow-band UVB stimulation of primary mouse epidermal keratinocytes (1° MK) cultured in vitro (FIG. 6A-B and FIG. 2A-D). This allowed use of the Ca++ sensitive dye, fluo-4, and assessment of 1° MK's Ca++ dynamics following UVB exposure (FIG. 6B). The elicited Ca++ signal was obliterated by a UV-refracting glass coverslip, underscoring the strict dependence of the calcium response on UVB (FIG. 6C and FIG. 2A).

In a further assay the test system is ET1 expression in 1° MK. Kind of assay: ET1 expression by UVB-exposed 1° MK (immunocytochemistry). The format is cell-based, mouse. To be noted: 295 nm UVB-LED, 24 hours. The procedure:
1° MK were exposed to UVB using the UV optical system (295 nm LED). 24 hours later the cells were fixed and fluorescently immunolabeled for ET1. Digital images were captured and subjected to morphometry.
Mouse keratinocytes were cultured on collagen coated quartz coverslips and then stimulated from the bottom using the previously mentioned UV optical system using the 295 nm LED. 24 hours later the cells were fixed in 4% formaldehyde in PBS for 20 minutes, permeabilized with 0.1% Triton X-100 in PBS for 10 minutes, washed, then blocked in 10% normal goat serum in PBS for 45 minutes. Coverslips were incubated overnight with primary antibody mouse anti-ET1 (1:200; Abcam), washed three times in PBS and incubated with secondary antibody for 2 hours at 25° C. Coverslips were washed three times in PBS, once with double-distilled H2O. Digital images were captured using a 40× immersion lens on the BX61 Olympus upright microscope. Morphometric analysis was conducted using ImageJ freeware with tailored regions-of-interest.
(§2) We tested whether UVB causes ET1 upregulation in a TRPV4-dependent manner. Given the exquisite wave-length dependence of ET1 expression in 1° MKs, we resorted to the UVB-LED device as for Ca++ imaging (FIG. 6A and FIG. 2A-D). […] Consistent with its effects on UVB-evoked Ca++ transients, PLC-inhibitor U73122 also dampened ET1 expression. […] This leads to TRPV4-dependent Ca++ signaling, which in turn amplifies ET1 signaling in a paracrine/autocrine fashion.

The next assay concerns ET1 secretion by 1° MK. Kind of assay: ET1 secretion by non-stimulated 1° MK (ELISA of supernatant). Format: cell-based, mouse. The procedure:
FIG. 8: Central role for KC TRPV4 in UVB-evoked Ca^++ signaling and nocifensive behavior—ET1-related supplementary findings. (A) Augmentation of GSK101-evoked Ca^++ signaling by ET1. Shown are averaged Ca^++ measurements (fura-2) in response to 5 nM GSK101. […] (B) ET1 secretion by non-stimulated 1° MK depends on TRPV4 and PLC. Shown are relative ET1 concentrations (determined by ELISA, pg/mL; vehicle-treated and WT control normalized to 100) in supernatant of non-stimulated 1° MK. Note the clear dependence on TRPV4, as indicated by a 50% reduction in Trpv4^−/− 1° MK. […] In addition, PLC-inhibitor robustly affects ET1 secretion in WT and Trpv4^−/− 1° MK. (C) ET1 expression by UVB-exposed 1° MK depends on TRPV4 and PLC—immunocytochemistry. Shown is specific ET1 immunolabeling in 1° MK, exposed to UVB using the UVB-LEDs, as for Ca^++ imaging. Use of the UVB-LED device precluded application of a ET1 ELISA, only irradiated cells could be examined. […] (D) ET1 expression by UVB-exposed 1° MK depends on TRPV4 and PLC—quantification of immunocytochemistry.
as §2
Background: An ELISA detects its analyte on a solid surface through an enzyme-linked reagent.

In assay [2] the target is T1, TRPV4 (Mus musculus, UniProt Q9EPK8).
T1 construct: Primary mouse keratinocytes were derived from back skin of newborn mice; endogenous in cells; host or cells: primary mouse epidermal keratinocytes (1° MK), wild type
T1 sequence (Q9EPK8 whole entry): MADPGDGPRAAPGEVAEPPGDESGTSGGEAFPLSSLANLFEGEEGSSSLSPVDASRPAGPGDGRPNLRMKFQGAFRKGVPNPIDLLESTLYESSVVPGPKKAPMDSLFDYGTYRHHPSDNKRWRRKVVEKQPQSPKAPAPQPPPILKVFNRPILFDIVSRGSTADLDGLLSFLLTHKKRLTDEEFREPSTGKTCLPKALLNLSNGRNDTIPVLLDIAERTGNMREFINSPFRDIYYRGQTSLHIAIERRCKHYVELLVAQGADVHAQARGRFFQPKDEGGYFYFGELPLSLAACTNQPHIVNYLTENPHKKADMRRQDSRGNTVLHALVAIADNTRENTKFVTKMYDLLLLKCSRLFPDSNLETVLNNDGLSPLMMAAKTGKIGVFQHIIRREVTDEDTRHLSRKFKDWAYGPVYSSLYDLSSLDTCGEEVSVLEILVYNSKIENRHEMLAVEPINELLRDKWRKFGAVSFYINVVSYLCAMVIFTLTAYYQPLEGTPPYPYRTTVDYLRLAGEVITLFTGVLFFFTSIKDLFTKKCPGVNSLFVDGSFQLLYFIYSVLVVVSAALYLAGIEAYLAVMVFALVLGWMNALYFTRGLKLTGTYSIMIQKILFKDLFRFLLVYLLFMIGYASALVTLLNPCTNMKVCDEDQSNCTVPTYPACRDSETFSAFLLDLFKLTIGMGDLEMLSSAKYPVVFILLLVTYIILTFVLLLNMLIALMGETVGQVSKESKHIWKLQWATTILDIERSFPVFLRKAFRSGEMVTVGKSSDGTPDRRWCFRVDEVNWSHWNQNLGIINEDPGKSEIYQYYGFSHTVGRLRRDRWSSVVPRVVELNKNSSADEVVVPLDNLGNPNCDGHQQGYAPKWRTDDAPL
Kind of assay: GSK101-evoked Ca++ transient in 1° MK (fura-2). The format is cell-based. To be noted: 5 nM GSK101. As to the method:
as §1, with “temperature. We confirmed the non-thermal nature of UVB stimulation using the customized 295 nm LED device in a dedicated experiment (FIG. 2D), thus confirming the specific modality of stimulation as UVB.” for “temperature.”
We obtained corroborating findings by chemically activating TRPV4 with GSK101, which can directly stimulate TRPV4 in WT 1° MK. […]

Assay [3] addresses T1, TRPV4. Kind of assay: 4α-PDD-evoked Ca++ signaling in 1° MK with ET1 co-application. To be noted: fura-2, ET1 co-application. The format is cell-based. As to the method: FIG. 7: Central role for keratinocyte TRPV4 in UVB-evoked Ca++ signaling and nocifensive behavior—effects of ET1. (A) Effects of ET1 on UVB-evoked Ca++ signaling in 1° MKs. […] Panel (iii) illustrates the complete elimination of the ET1-augmented Ca++ transients when both subtypes of ET(R) are blocked. (B) 4α-PDD-evoked Ca++ signaling in 1° MKs—ET1-related findings. […] Quantifications are for n=3 mice/group. *** denotes statistically significant (p<0.001, t-test). (D) Nocifensive behavior in response to ET1 footpad injection depends on epidermal TRPV4. Bar diagram summarizes behavioral findings for Trpv4−/−vs. WT and for oil-treated vs. tam-treated iKO mice. […] Trpv4−/− and tam-treated iKO mice fail to respond; n≥7 mice/group, ** p<0.01, ANOVA.
Ca++ imaging of mouse 1° MK in response to chemical activation of TRPV4 was conducted after loading with 2 μM fura2-AM, following a ratiometric Ca2+ imaging protocol with 340/380 nm […] for dual excitation. Ratios of emissions were acquired at 0.5 Hz. ΔR/R0 was determined as the fraction of the increase of a given ratio over baseline ratio, divided by baseline ratio. For stimulation of cells with UVB, where fura-2 was not suitable because of the proximity of stimulation with 340/380 nm and 295 nm, 2 μM fluo4-AM was used instead. Ca++ imaging was carried out at 488 nm excitation, acquisition of emissions at 0.5 Hz, expressed as ΔF/F0. […]

On to `CC(C)C[C@@H]1NC(=O)[C@@H](C(C)C)NC(=O)[C@@H]2CCCN2C(=O)[C@@H](CC(=O)O)NC(=O)[C@@H](Cc2c[nH]c3ccccc23)NC1=O` [BQ123] (cyclo(L[dW][dD]P[dV])), for which the “ET1-augmented UVB-evoked Ca++ signaling” value in assay [1] is reported as “attenuated”.

Regarding `CCCC[C@@H](NC(=O)[C@@H](Cc1cn(C(=O)OC)c2ccccc12)NC(=O)[C@H](CC(C)(C)C)NC(=O)N1[C@H](C)CCC[C@@H]1C)C(=O)O` [BQ788], the “ET1-augmented UVB-evoked Ca++ signaling” value in assay [1] is reported as “attenuated”.

For the compound `O=C(O)C(Cc1ccc2c(c1)oc1ccccc12)NCP(=O)(O)O` (centres unmarked) [CGS35066], in the assay on ET1 expression in 1° MK, the “ET1 immunoreactivity in UVB-exposed 1° MK” value (shortened to “ET1 immunoreactivity”) is listed as “significant down-regulation”. Moreover, the “ET1 secretion by non-stimulated 1° MK” value with ET1 secretion by 1° MK is reported as “down-regulation of ET1 secretion”. In addition, in assay [1], the “UVB-evoked Ca++ signaling” value is recorded as “significantly diminished; also recorded: significant attenuation”.

In the case of `COc1ccc2c(c1)CC[C@@H]1[C@@H]2CC[C@]2(C)[C@@H](NCCCCCCN3C(=O)C=CC3=O)CC[C@@H]12` [Compound U73122], the “ET1 immunoreactivity” value in the assay on ET1 expression in 1° MK is given as “dampened; also recorded: significant down-regulation”. The “ET1 secretion by non-stimulated 1° MK” value in the assay with ET1 secretion by 1° MK was “down-regulation of ET1 secretion”. In assay [1], the “UVB-evoked Ca++ signaling” value is listed as “virtually eliminated; also recorded: strongly reduced”.

As to `C=C(C)CCO[P@@](=O)(O)OP(=O)(O)O` [IPP, isopentenyl pyrophosphate], in assay [1], the “UVB-evoked Ca++ signaling” value is given as “no effect; also recorded: not inhibited”.

Turning to `CC(C)NCCN(C(C)C)S(=O)(=O)c1ccc(Cl)cc1Cl` [RN1734], the “ET1 immunoreactivity” value with ET1 expression in 1° MK is “diminished; also recorded: significant down-regulation”. In addition, the “ET1 secretion by non-stimulated 1° MK” value in the assay on ET1 secretion by 1° MK was “significant down-regulation”.

With endothelin-1 [ET1], the “GSK101-evoked Ca++ signaling on co-exposure to ET1” value in the assay with TRPV4 [2] was “augmented; also recorded: increase in signal”. In the assay with TRPV4 [3], the “4α-PDD-evoked Ca++ response” value is “significant increase”. Also, the “UVB-evoked Ca++ signaling” value in assay [1] is recorded as “significant increase; also recorded: augmentation”.
